# Test results: US9976141B2, “Compositions and methods for inhibiting gene expression of Hif2alpha” (Arrowhead Madison Inc., priority 2015, dated 2018)
# Strand notation (5' to 3'): a small letter for the sugar, then the base; units joined by * are phosphorothioate-linked, units joined directly phosphodiester-linked; [ ] holds rarer units or linkages, { } end groups; capitals alone tell only the bases. [UNA-N] = unlocked nucleic acid (N: the base); [invdT] = inverted (3'-3') thymidine; d = 2'-deoxy (DNA); m = 2'-O-methyl; f = 2'-fluoro
# Assays:
# [1] = test system: human (tumor) Hif2α (EPAS1) mRNA; experiment: HiF2α RNAi trigger/sunitinib combination study: HiF2α expression in RCC tumors (Table 10A); assay type: in vivo; details: 4 doses, 3 cycles
# Procedure: Female athymic nude mice were anesthetized with ˜3% isoflourane and placed in the right lateral decubitus position. A small, 0.5-1 cm, longitudinally abdominal incision in the left flank was made. Using a moist cotton swab, the left kidney was lifted out of the peritoneum and gently stabilized. Just before injection, a 1.0 ml syringe was filled with the cell/Matrigel mixture and a 27 gauge needle catheter was attached to the syringe tip. The filled syringe was then attached to a syringe pump (Harvard Apparatus, model PHD2000) and primed to remove air. The tip of a 27-gauge needle catheter attached to a syringe was inserted just below the renal capsule near the caudal pole and the tip of the needle was then carefully advanced cranially along the capsule 3-4 mm. […]
# In preparation for quantitative PCR, total RNA was isolated from tissue samples homogenized in TriReagent (Molecular Research Center, Cincinnati, Ohio) following the manufacturer's protocol. […] Quantitative PCR was performed by using a 7500 Fast or StepOnePlus Real-Time PCR system (Life Technologies). […]
# Tumor growth rates were evaluated by serum SEAP collected at 5-7 days interval during treatment. Tumor weight and volume was determined at necropsy. Gross tumor morphology and H&E histopathology were evaluated.
# [2] = test system: A498-SEAP ccRCC orthotopic kidney tumor; experiment: HiF2α RNAi trigger/sunitinib combination study: tumor size and SEAP expression (Table 10B); assay type: in vivo, mice; details: trigger = Duplex AD1884 with polymer 064 (125 μg polymer) iv every 4 weeks, 4 doses, sunitinib oral gavage, 3 cycles
# [3] = test system: human EPAS1 (Hif2α) cDNA in psiCHECK2 (Renilla luciferase/EPAS1 fusion mRNA) in Hep3B cells; experiment: Hif2α RNAi trigger EC50 determination, dual-luciferase reporter assay; assay type: cell-based; details: UNA modified at site 6 or 7, EPAS1-psiCHECK2, same conditions, read-out: EC50 UNAs EC50
# Excerpt: Candidate sequences were identified by in silico analysis and screened as chemically modified canonical siRNAs in vitro. For screening purposes, the human EPAS1 (Hif2α) cDNA sequence (accession #NM 001430) was synthesized and cloned (DNA 2.0, Menlo Park, Calif.) into a commercially-available reporter-based screening plasmid, psiCHECK2 (Promega, Madison, Wis.) which generated a Renilla luciferase/EPAS1 fusion mRNA. For RNAi trigger efficacy evaluation, Hep3B cells, a human hepatocellular carcinoma line, were plated at 10,000 cells per well in 96-well format. Each of the 187 EPAS1 RNAi triggers, in two subsets, was co-transfected at two concentrations, 1 nM and 0.1 nM, with 25 ng EPAS1-psiCHECK2 plasmid DNA per well and 0.2 μL LipoFectamine 2000 (Life Technologies) per well. Gene knockdown was determined by measuring Renilla luciferase levels normalized to the levels of constitutively-expressed firefly luciferase, also present on the psiCHECK-2 plasmid, using the Dual Luciferase Reporter Assay (Promega, Madison, Wis.) Table 5.
# The eight best canonical sequences were further evaluated by determining the EC50 concentration. Each trigger was assessed for knockdown under the same conditions and assays as above, but at 10 different concentrations ranging from 0.00051 nM to 10 nM. EC50 were determined using GraphPad Prism software. Each of the top five canonical sequences were modified to contain UNA at sites 6 and 7. These triggers, along with their parent canonical sequences, were evaluated side-by-side for EC50 concentration determination using the same conditions and assays as above, Table 6.
# [4] = test system: human (tumor) Hif2α (EPAS1) mRNA; experiment: Hif2α expression in RCC tumor bearing mice after single injection of RGD targeted conjugates, 72 h, RT-qPCR (Table 11); assay type: in vivo; details: trigger 80 μg, polymer 126 280 μg
# Procedure: Female athymic nude mice were anesthetized with ˜3% isoflourane and placed in the right lateral decubitus position. A small, 0.5-1 cm, longitudinally abdominal incision in the left flank was made. Using a moist cotton swab, the left kidney was lifted out of the peritoneum and gently stabilized. Just before injection, a 1.0 ml syringe was filled with the cell/Matrigel mixture and a 27 gauge needle catheter was attached to the syringe tip. The filled syringe was then attached to a syringe pump (Harvard Apparatus, model PHD2000) and primed to remove air. The tip of a 27-gauge needle catheter attached to a syringe was inserted just below the renal capsule near the caudal pole and the tip of the needle was then carefully advanced cranially along the capsule 3-4 mm. A 10 μl aliquot of 2:1 (vol:vol) cell/matrigel mixture containing about 300,000 cells was slowly injected into the kidney parenchyma using a syringe pump. The needle was left in the kidney for 15-20 seconds to ensure the injection was complete. The needle was then removed from the kidney and a cotton swab was placed over the injection site for 30 seconds to prevent leakage of the cells or bleeding. The kidney was then gently placed back into the abdomen and the abdominal wall was closed. Serum was collected every 7-14 days after implantation to monitor tumor growth using a commercial SEAP assay kit. For most studies, tumor mice were used 5-6 weeks after implantation, when tumor measurements were typically around 4-8 mm.
# In preparation for quantitative PCR, total RNA was isolated from tissue samples homogenized in TriReagent (Molecular Research Center, Cincinnati, Ohio) following the manufacturer's protocol. Approximately 500 ng RNA was reverse-transcribed using the High Capacity cDNA Reverse Transcription Kit (Life Technologies). For human (tumor) Hif2α (EPAS1) expression, pre-manufactured TaqMan gene expression assays for human Hif2α (Catalog #4331182) and CycA (PPIA) Catalog #: 4326316E) were used in biplex reactions in triplicate using TaqMan Gene Expression Master Mix (Life Technologies) or VeriQuest Probe Master Mix (Affymetrix). For human (tumor) VegFa (VEGFA) expression, pre-manufactured TaqMan gene expression assays for human VegFa (Catalog #4331182, Assay ID: Hs00900055) and CycA (Part#: 4326316E) were used in biplex reactions in triplicate using TaqMan Gene Expression Master Mix (Life Technologies) or VeriQuest Probe Master Mix (Affymetrix). Quantitative PCR was performed by using a 7500 Fast or StepOnePlus Real-Time PCR system (Life Technologies). The ΔΔCT method was used to calculate relative gene expression.
# RGD targeted HiF2α-RNAi trigger delivery polymer conjugates were formed using polymer 126, 100A, or 006. The RNAi trigger, μg indicates the quantity of trigger reacted with polymer. The polymer was modified with the indicated RGD mimic and PEG modifying agents as described above. Kidney RCC tumor-bearing mice were generated as described and treated with a single tail vein injection of isotonic glucose (G1) or the indicated Hif2α RNAi trigger-delivery polymer conjugate. Mice were euthanized 72 h (day 4) after injection and total RNA was prepared from kidney tumor using Trizol reagent following manufacturer's recommendation. Relative HiF2α mRNA levels were determined by RT-qPCR as described and compared to mice treated with delivery buffer (isotonic glucose) only (Table 11).
# [5] = test system: human (tumor) Hif2α (EPAS1) mRNA; experiment: Hif2α knockdown in orthotopic RCC tumor bearing mice, single injection of RNAi trigger-delivery polymer conjugate, RT-qPCR (Table 7); assay type: in vivo; details: RNAi trigger 80 μg, polymer 126 400 μg; single tail vein injection; relative to isotonic glucose
# Summary of the method: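 Female athymic nude mice carried orthotopic A498-SEAP ccRCC kidney tumours, used 5–6 weeks after implantation. They received one tail-vein injection of RGD-targeted Hif2α RNAi trigger–polymer conjugate or isotonic glucose. Tumour Hif2α mRNA was measured by TaqMan RT-qPCR normalised to CycA (ΔΔCT) and expressed relative to glucose-treated mice.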
compound,measurement,setting,value
"CCN(CC)CCNC(=O)c1c(C)[nH]c(/C=C2\C(=O)Nc3ccc(F)cc32)c1C [sunitinib, Sunitinib]",Relative HiF2α expression levels decreased,"[1]; DPC 125 μg polymer iv every 4 weeks, sunitinib oral gavage 5 days/week 2 weeks on, 2 weeks off",11.4%
same,"HiF2α expression, Relative expression","[1]; trigger = Duplex AD1884 with polymer 064 (125 μg polymer) iv every 4 weeks, sunitinib oral gavage 5 days/week, 2 weeks on/2 off",0.886
same,Tumor volume,[2]; at necropsy,2113.5 ± 368 mm3
same,Tumor weight,[2]; at necropsy,2385.7 ± 845 mg
same,Fold increase in SEAP,"[2]; serum SEAP, overall",18.1 ± 9.8
"AD00988: Hif2α RNAi trigger, XD-02335 sequence modified to contain UNA at site 6 (antisense dTfGmUfAmA[UNA-A]mAfCmAfAmUfUmGfUmGfUmAfCmUdT*dT; sense fAmGfUmAfCmAfCmAfAmUfUmGfUmUfUmUfAmCfA[invdT])",EC50,[3],0.841 nM
"AD00989: Hif2α RNAi trigger, XD-02371 sequence modified to contain UNA at site 6 (antisense dTfCmUfAmG[UNA-C]mAfAmCfAmAfAmAfCmCfUmUfAmAdT*dT; sense fUmUfAmAfGmGfUmUfUmUfGmUfUmGfCmUfAmGfA[invdT])",EC50,[3],0.375 nM
"AD00990: Hif2α RNAi trigger, XD-02404 sequence modified to contain UNA at site 6 (antisense dTfAmAfAmU[UNA-C]mGfUmUfAmCfGmUfUmGfAmCfAmGdT*dT; sense dTfGmAfGmGfAmGfCmUfUmGfUmGfUmGfUmUfCmGdT*dT)",EC50,[3],0.153 nM
"AD00991: Hif2α RNAi trigger, XD-02407 sequence modified to contain UNA at site 6 (antisense dTfUmUfCmA[UNA-U]mGfAmAfAmUfCmGfUmUfAmCfGmUdT*dT; sense fAmCfGmUfAmAfCmGfAmUfUmUfCmAfUmGfAmAfA[invdT])",EC50,[3],0.35 nM
"AD00992: Hif2α RNAi trigger, XD-02415 sequence modified to contain UNA at site 6 (antisense dTfAmAfGmU[UNA-U]mAfAmGfCmUfCmCfCmAfUmAfCmAdT*dT; sense fUmGfUmAfUmGfGmGfAmGfCmUfUmAfAmCfUmUfA[invdT])",EC50,[3],0.142 nM
"AD00993: Hif2α RNAi trigger, XD-02335 sequence modified to contain UNA at site 7 (antisense dTfGmUfAmAfA[UNA-A]fCmAfAmUfUmGfUmGfUmAfCmUdT*dT; sense fAmGfUmAfCmAfCmAfAmUfUmGfUmUfUmUfAmCfA[invdT])",EC50,[3],0.55 nM
"AD00994: Hif2α RNAi trigger, XD-02371 sequence modified to contain UNA at site 7 (antisense dTfCmUfAmGfC[UNA-A]fAmCfAmAfAmAfCmCfUmUfAmAdT*dT; sense fUmUfAmAfGmGfUmUfUmUfGmUfUmGfCmUfAmGfA[invdT])",EC50,[3],0.0807 nM
"AD00995: Hif2α RNAi trigger, XD-02404 sequence modified to contain UNA at site 7 (antisense dTfAmAfAmUfC[UNA-G]fUmUfAmCfGmUfUmGfAmCfAmGdT*dT; sense dTfGmAfGmGfAmGfCmUfUmGfUmGfUmGfUmUfCmGdT*dT)",EC50,[3],0.169 nM
"AD00996: Hif2α RNAi trigger, XD-02407 sequence modified to contain UNA at site 7 (antisense dTfUmUfCmAfU[UNA-G]fAmAfAmUfCmGfUmUfAmCfGmUdT*dT; sense fAmCfGmUfAmAfCmGfAmUfUmUfCmAfUmGfAmAfA[invdT])",EC50,[3],0.118 nM
"AD00997: Hif2α RNAi trigger, XD-02415 sequence modified to contain UNA at site 7 (antisense dTfAmAfGmUfU[UNA-A]fAmGfCmUfCmCfCmAfUmAfCmAdT*dT; sense fUmGfUmAfUmGfGmGfAmGfCmUfUmAfAmCfUmUfA[invdT])",EC50,[3],0.183 nM
"AD01031: Hif2α RNAi trigger duplex used in the multi-dose conjugate of Example 15 (antisense TUUCAUGAAAUCGUUACGUTT; sense ACGUAACGAUUUCAUGAAAT; Hif2alpha RNAi agent antisense strand; modified_base 2,4,6,8,10,12,14,16,18 /mod_base = “2′-deoxy-2′-fluoro corresponding nucleoside”; modified_base 3,5,7,9,11,13,15,17,19 /mod_base = “2′-O-methyl corresponding nucleoside”; modified_base 21 /mod_base = “5′-phosphorothioate corresponding nucleotide”; Hif2alpha RNAi agent sense strand; modified_base 1,3,5,7,9,11,13,15,17,19 /mod_base = “2′-deoxy-2′-fluoro corresponding nucleoside”; modified_base 2,4,6,8,10,12,14,16,18 /mod_base = “2′-O-methyl corresponding nucleoside”; modified_base 20 /mod_base = “3′-3′-linked nucleotide”; modified_base 1 /mo)",Relative Expression day 4 (Hif2α),"[4]; RGD-PEG8-ACit-PABC-PNP 0.4×, PEG6-ACit-PABC-PNP",0.311
same,Relative Expression day 4 (Hif2α),"[4]; RGD-PEG8-HyNic 0.5×, PEG12-ACit-PABC-PNP",0.300
same,Relative Expression day 4 (Hif2α mRNA in kidney tumor),[5],0.20
